Data as given in the NIST ThermoML archive (doi:10.1021/je100472t).
± gives the expanded uncertainty stated by the source.

Assay: xn = mol fraction of the nth substance listed
Conditions: 101 kPa, Liquid; for speed of sound: Pulse-echo method; for mass density: Vibrating tube method

CNc1ccccc1 [N-methylaniline] + CCC(C)=O
Conditions | mass density [kg/m3] | speed of sound [m/s]
293.15 K, x2 = 0.0627 | 977.942 ± 0.74 | 1562.9 ± 2
293.15 K, x2 = 0.1133 | 970.977 ± 0.68 | 1546.9 ± 2
293.15 K, x2 = 0.1564 | 964.888 ± 0.63 | 1532.9 ± 1.9
293.15 K, x2 = 0.2058 | 957.75 ± 0.57 | 1517 ± 1.9
293.15 K, x2 = 0.2538 | 950.572 ± 0.53 | 1501 ± 1.8
293.15 K, x2 = 0.3018 | 943.182 ± 0.48 | 1484.8 ± 1.7
293.15 K, x2 = 0.3464 | 936.057 ± 0.44 | 1469.4 ± 1.6
293.15 K, x2 = 0.3938 | 928.444 ± 0.4 | 1453 ± 1.6
293.15 K, x2 = 0.4435 | 920.205 ± 0.36 | 1435.6 ± 1.5
293.15 K, x2 = 0.4907 | 912.022 ± 0.33 | 1418.5 ± 1.4
293.15 K, x2 = 0.5508 | 901.21 ± 0.29 | 1396.2 ± 1.4
293.15 K, x2 = 0.5959 | 892.779 ± 0.27 | 1378.9 ± 1.3
293.15 K, x2 = 0.6529 | 881.753 ± 0.24 | 1356.6 ± 1.2
293.15 K, x2 = 0.7489 | 862.241 ± 0.2 | 1318.2 ± 1.1
293.15 K, x2 = 0.7938 | 852.894 ± 0.19 | 1300 ± 1.1
293.15 K, x2 = 0.8492 | 840.63 ± 0.17 | 1277 ± 0.98
293.15 K, x2 = 0.8981 | 829.68 ± 0.16 | 1256.7 ± 0.92
293.15 K, x2 = 0.9525 | 816.716 ± 0.15 | 1232.9 ± 0.86
298.15 K, x2 = 0.076 | 972.066 ± 0.72 | 1540.1 ± 2
298.15 K, x2 = 0.1115 | 967.149 ± 0.68 | 1528.8 ± 2
298.15 K, x2 = 0.1566 | 960.718 ± 0.62 | 1514.2 ± 1.9
298.15 K, x2 = 0.2076 | 953.334 ± 0.57 | 1497.6 ± 1.8
298.15 K, x2 = 0.2589 | 945.633 ± 0.52 | 1480.6 ± 1.8
298.15 K, x2 = 0.2967 | 939.765 ± 0.48 | 1467.7 ± 1.7
298.15 K, x2 = 0.3471 | 931.809 ± 0.44 | 1450.5 ± 1.6
298.15 K, x2 = 0.3973 | 923.563 ± 0.4 | 1432.8 ± 1.6
298.15 K, x2 = 0.4477 | 915.055 ± 0.36 | 1414.8 ± 1.5
298.15 K, x2 = 0.495 | 906.694 ± 0.33 | 1397.2 ± 1.4
298.15 K, x2 = 0.5471 | 897.284 ± 0.3 | 1377.8 ± 1.4
298.15 K, x2 = 0.5992 | 887.579 ± 0.27 | 1357.9 ± 1.3
298.15 K, x2 = 0.6921 | 869.471 ± 0.22 | 1321.7 ± 1.2
298.15 K, x2 = 0.7463 | 858.202 ± 0.2 | 1299.5 ± 1.1
298.15 K, x2 = 0.8007 | 846.555 ± 0.19 | 1277 ± 1
298.15 K, x2 = 0.847 | 836.277 ± 0.17 | 1257.5 ± 0.98
298.15 K, x2 = 0.8993 | 824.346 ± 0.16 | 1235.1 ± 0.92
298.15 K, x2 = 0.9472 | 813 ± 0.16 | 1214.5 ± 0.86
303.15 K, x2 = 0.0641 | 969.669 ± 0.73 | 1526 ± 2
303.15 K, x2 = 0.1123 | 962.964 ± 0.67 | 1510.7 ± 2
303.15 K, x2 = 0.1581 | 956.434 ± 0.62 | 1495.9 ± 1.9
303.15 K, x2 = 0.2036 | 949.789 ± 0.57 | 1481.1 ± 1.9
303.15 K, x2 = 0.2591 | 941.381 ± 0.52 | 1462.5 ± 1.8
303.15 K, x2 = 0.3061 | 934.049 ± 0.47 | 1446.5 ± 1.7
303.15 K, x2 = 0.3513 | 926.789 ± 0.43 | 1430.8 ± 1.6
303.15 K, x2 = 0.4022 | 918.424 ± 0.39 | 1412.9 ± 1.6
303.15 K, x2 = 0.4472 | 910.653 ± 0.36 | 1396.5 ± 1.5
303.15 K, x2 = 0.5025 | 900.926 ± 0.32 | 1376.1 ± 1.4
303.15 K, x2 = 0.5536 | 891.605 ± 0.29 | 1356.9 ± 1.4
303.15 K, x2 = 0.5984 | 883.203 ± 0.27 | 1339.7 ± 1.3
303.15 K, x2 = 0.6489 | 873.485 ± 0.24 | 1320.1 ± 1.2
303.15 K, x2 = 0.6969 | 863.705 ± 0.22 | 1300.7 ± 1.2
303.15 K, x2 = 0.7543 | 851.719 ± 0.2 | 1277.1 ± 1.1
303.15 K, x2 = 0.8047 | 840.797 ± 0.19 | 1256 ± 1
303.15 K, x2 = 0.8497 | 830.818 ± 0.18 | 1237.1 ± 0.97
303.15 K, x2 = 0.8965 | 819.999 ± 0.17 | 1216.8 ± 0.91
303.15 K, x2 = 0.9524 | 806.615 ± 0.16 | 1192.2 ± 0.85

Nc1ccccc1 [aniline] + CCC(C)=O
Conditions | mass density [kg/m3] | speed of sound [m/s]
293.15 K, x2 = 0.058 | 1011.29 ± 0.095 | 1633.7 ± 0.94
293.15 K, x2 = 0.1122 | 1001.34 ± 0.089 | 1612.2 ± 0.93
293.15 K, x2 = 0.1576 | 993.678 ± 0.09 | 1594.7 ± 0.93
293.15 K, x2 = 0.2052 | 985.068 ± 0.093 | 1576 ± 0.92
293.15 K, x2 = 0.2543 | 976.056 ± 0.096 | 1556.7 ± 0.91
293.15 K, x2 = 0.3043 | 966.42 ± 0.099 | 1536.6 ± 0.91
293.15 K, x2 = 0.3562 | 956.208 ± 0.1 | 1515.5 ± 0.9
293.15 K, x2 = 0.4059 | 946.279 ± 0.11 | 1495.2 ± 0.9
293.15 K, x2 = 0.453 | 936.5 ± 0.11 | 1475.2 ± 0.89
293.15 K, x2 = 0.5048 | 925.617 ± 0.11 | 1453.2 ± 0.88
293.15 K, x2 = 0.5443 | 917.103 ± 0.12 | 1435.8 ± 0.88
293.15 K, x2 = 0.612 | 902.143 ± 0.12 | 1405.4 ± 0.87
293.15 K, x2 = 0.648 | 894.022 ± 0.12 | 1389 ± 0.86
293.15 K, x2 = 0.7044 | 880.787 ± 0.13 | 1362.1 ± 0.86
293.15 K, x2 = 0.7754 | 863.737 ± 0.13 | 1328.6 ± 0.85
293.15 K, x2 = 0.8081 | 855.598 ± 0.14 | 1311.3 ± 0.84
293.15 K, x2 = 0.8493 | 845.213 ± 0.14 | 1290.5 ± 0.83
293.15 K, x2 = 0.9027 | 831.249 ± 0.14 | 1262.9 ± 0.83
293.15 K, x2 = 0.9476 | 819.373 ± 0.15 | 1239.6 ± 0.82
298.15 K, x2 = 0.056 | 1007.34 ± 0.091 | 1615.4 ± 0.93
298.15 K, x2 = 0.1188 | 997.647 ± 0.089 | 1593.6 ± 0.93
298.15 K, x2 = 0.1547 | 990.216 ± 0.093 | 1576.9 ± 0.92
298.15 K, x2 = 0.2038 | 981.189 ± 0.095 | 1557.5 ± 0.91
298.15 K, x2 = 0.2563 | 971.23 ± 0.098 | 1536.5 ± 0.91
298.15 K, x2 = 0.3064 | 961.559 ± 0.1 | 1516.3 ± 0.9
298.15 K, x2 = 0.3474 | 953.414 ± 0.1 | 1499.6 ± 0.9
298.15 K, x2 = 0.4089 | 940.989 ± 0.11 | 1474.1 ± 0.89
298.15 K, x2 = 0.4523 | 932.032 ± 0.11 | 1455.8 ± 0.88
298.15 K, x2 = 0.5026 | 921.385 ± 0.11 | 1434.1 ± 0.88
298.15 K, x2 = 0.5467 | 911.916 ± 0.12 | 1414.9 ± 0.87
298.15 K, x2 = 0.6019 | 899.666 ± 0.12 | 1390 ± 0.86
298.15 K, x2 = 0.6481 | 889.131 ± 0.12 | 1368.5 ± 0.86
298.15 K, x2 = 0.7048 | 875.989 ± 0.13 | 1341.9 ± 0.85
298.15 K, x2 = 0.7451 | 866.153 ± 0.13 | 1322 ± 0.84
298.15 K, x2 = 0.803 | 851.853 ± 0.14 | 1293.2 ± 0.83
298.15 K, x2 = 0.8487 | 840.349 ± 0.14 | 1270.1 ± 0.83
298.15 K, x2 = 0.9019 | 826.554 ± 0.14 | 1242.8 ± 0.82
298.15 K, x2 = 0.9489 | 813.934 ± 0.15 | 1218 ± 0.81
303.15 K, x2 = 0.0582 | 1002.61 ± 0.091 | 1596.1 ± 0.93
303.15 K, x2 = 0.1097 | 993.104 ± 0.093 | 1575.6 ± 0.92
303.15 K, x2 = 0.1485 | 986.049 ± 0.094 | 1560.3 ± 0.92
303.15 K, x2 = 0.205 | 975.667 ± 0.097 | 1538 ± 0.91
303.15 K, x2 = 0.2507 | 967.388 ± 0.099 | 1520.3 ± 0.9
303.15 K, x2 = 0.3064 | 956.964 ± 0.1 | 1497.9 ± 0.9
303.15 K, x2 = 0.3426 | 949.873 ± 0.1 | 1483 ± 0.89
303.15 K, x2 = 0.414 | 935.434 ± 0.11 | 1453.3 ± 0.88
303.15 K, x2 = 0.447 | 928.634 ± 0.11 | 1439.5 ± 0.88
303.15 K, x2 = 0.491 | 919.218 ± 0.11 | 1420.3 ± 0.87
303.15 K, x2 = 0.5537 | 905.656 ± 0.12 | 1392.7 ± 0.86
303.15 K, x2 = 0.6044 | 894.417 ± 0.12 | 1369.8 ± 0.86
303.15 K, x2 = 0.6434 | 885.415 ± 0.12 | 1351.5 ± 0.85
303.15 K, x2 = 0.7038 | 871.181 ± 0.13 | 1322.6 ± 0.84
303.15 K, x2 = 0.7716 | 854.721 ± 0.13 | 1289.4 ± 0.83
303.15 K, x2 = 0.8079 | 845.614 ± 0.14 | 1271.1 ± 0.83
303.15 K, x2 = 0.8481 | 835.388 ± 0.14 | 1250.6 ± 0.82
303.15 K, x2 = 0.8988 | 822.096 ± 0.14 | 1224.2 ± 0.81
303.15 K, x2 = 0.9466 | 809.221 ± 0.15 | 1199 ± 0.81
